Entries after “also recorded” stand apart in the source; their conditions may differ.
Tests used:
GABAA receptor subunits = experiment: Western blotting of streptavidin-captured GABAA receptor subunits with ligand protection; type: binding, mouse; settings: AziPm-click (1) 10 μM, protecting ligand 100 μM, UV irradiation; n = 4
Protocol: (§1) Synaptosomes were resuspended to 1 mg of protein/ml in HEPES buffer medium (in mM: 140 NaCl, 5 KCl, 5 NaHCO3, 1.2 NaH2PO4, 1 MgCl2, 10 glucose, and 10 HEPES (pH 7.4)). […] The samples were allowed to equilibrate for 5 min before being transferred to a parafilm-sealed 1-mm path length quartz cuvette. The sample was then irradiated for 20 min at a peak bandwidth of 350 nm (Rayonet RPR-3500 lamp) ∼6 cm from the light source. Non-irradiated samples were left in the dark at ambient temperature (22–25 °C) for 20 min. All remaining procedures were conducted with restricted light exposure.
To 750 μg of photolabeled or control synaptosome samples, 40 μl of 10% SDS and 2 μl of 5 mM DTT in water were added. Samples were then vortexed, heated for 10 min at 65 °C, and then briefly cooled. Final concentrations of 150 μM azide-biotin (Click Chemistry Tools), 2 mM tris(3-hydroxypropyltriazolylmethyl)amine (Sigma), 1 mM ascorbic acid (Sigma), and 1 mM CuSO4·5H2O (Sigma) were added to each sample and vortexed vigorously. The samples were left in the dark at ambient temperature (22–25 °C) for 1 h with mild agitation. Directly to each sample 4× volume chilled methanol, 1.5× chilled chloroform, and 3× chilled double distilled H2O were added. Samples were vortexed vigorously and centrifuged at 1,400 × g for 30 min at 4 °C. […]

α1β2γ2 GABAA receptors = settings: heterologously expressed receptors; cited from earlier work
[1] = at even 100-fold higher concentrations than propofol; cited from earlier work
[2] = test system: alkylphenol-binding proteins within synaptosomes; experiment: Fluorescent profiling: protection from AziPm-click (1) photolabeling of synaptosomes; parameters: species or system mouse; settings: propofol 75–375 μM; ketamine 150–450 μM; triplicate
Protocol: as §1

Row | Compound | protection of GABAA receptor α and β subunits from AziPm-click (1) capture (GABAA receptor subunits) | activity on GABAA receptor (α1β2γ2 GABAA receptors) | immobilization [1] | fluorescent labeling of synaptosomal proteins by AziPm-click (1) in presence of protecting ligand [2]
1 | CC(C)c1cccc(C(C)C)c1F [fropofol, 2-fluoro-1,3-diisopropylbenzene] | unable to protect | did not modulate or disrupt propofol potentiation; also recorded: no activity | did not cause immobilization | 
2 | CNC1(c2ccccc2Cl)CCCCC1=O (stereo not shown) [ketamine] |  |  |  | no changes in fluorescence intensity
